Results reported in patent US20230210825A1, “METHODS AND COMPOSITIONS FOR TREATING SUBJECTS WITH METABOLIC DISORDERS AND CORONAVIRUS INFECTIONS” (CIRIUS THERAPEUTICS, INC., priority 2020, published 2023).

Legend:
[1] = tested on: influenza virus A/PR/8/34 (H1N1) infected mice; assay: Influenza virus infection of C57BL/6 mice; assay type: in vivo; conditions: 30 mg/kg for 8 days
Description: As shown in the top panel of FIG. 13A, C57BL/6 mice were infected with the influenza virus A/PR/8/34 (H1N1; ˜200 pfu/mouse) and then dosed for 8 days with vehicle or 30 mg/kg MSDC-0602K. As shown in the bottom panel of FIG. 13A, body weight was measured daily as indication of the health of the mice and at day 14 the mice were sacrificed for examination of their blood and lung tissue. The mice were sacrificed on day 14. […] The MCP-1 production levels are decreased in mice treated with MSDC-0602K compared with mice with vehicle treatment. Similarly, the inflammatory monocyte numbers in the lungs are reduced in mice treated with MSDC-0602K compared with mice with vehicle treatment. FIG. 13 C is a representative histology with a calculation of the percent disrupted area. […] The levels of protein-B (sftbp) and ABCA3 protein (abca3) were increased in mice treated with MSDC-0602K compared with mice with vehicle treatment. On the other hand, the total protein levels in bronchoalveolar lavage were decreased in mice treated with MSDC-0602K compared with mice with vehicle treatment.

[2] = tested on: subjects with biopsy proven non-alcoholic steatohepatitis (NASH) with fibrosis and no cirrhosis; assay: EMMINENCE Phase 2b clinical trial; assay type: in vivo, human
[3] = sacrificed day 14, vs vehicle (FIG. 13B)
[4] = 250 mg, N = 101, mean, baseline to 12-month endpoint

Compound: COc1cccc(C(=O)COc2ccc(CC3SC(=O)NC3=O)cc2)c1 (stereo not drawn) [MSDC-0602K]
- expression of ABCA3 protein (abca3) in the lungs ([1]; sacrificed day 14, vs vehicle): increased
- expression of surfactant protein-B (sftbp) in the lungs ([1]; sacrificed day 14, vs vehicle): increased
- MCP-1 (CCL2) production in the lungs [1, 3]: decreased
- inflammatory monocyte numbers in the lungs [1, 3]: reduced
- disrupted area in lung (histology) ([1]; sacrificed day 14, vs vehicle (FIG. 13C)): significantly reduced
- total protein levels in bronchoalveolar lavage (lung barrier leakage) ([1]; sacrificed day 14, vs vehicle (FIG. 13E)): decreased
- Leucine Change from Baseline ([2]; 62.5 mg, N = 99, mean, baseline to 12-month endpoint): −6.74
- Valine Change from Baseline ([2]; 125 mg, mean, baseline to 12-month endpoint): −6.08
- Isoleucine Visit 7 ([2]; 250 mg, N = 101, mean, 12-month endpoint): 56.15
- Leucine Change from Baseline [2, 4]: −10.55
- TotalBCAA Change from Baseline [2, 4]: −37.80
- Branched Chain Amino Acids (BCAA) ([2]; baseline to 12-month endpoint (Visit 7)): reduced
